# The source made the active and inactive calls. The rule behind the calls is not given here.
# Assays:
# [1] = target: T1, Serine/threonine-protein kinase Nek1 (Homo sapiens) (UniProt Q96PY6); assay: Inhibition of NEK1 K2 labeling site in human Huh-7 cells at 1 uM by KiNativ Profiling analysis relative to control; type: cell-based
# T1 sequence (whole entry): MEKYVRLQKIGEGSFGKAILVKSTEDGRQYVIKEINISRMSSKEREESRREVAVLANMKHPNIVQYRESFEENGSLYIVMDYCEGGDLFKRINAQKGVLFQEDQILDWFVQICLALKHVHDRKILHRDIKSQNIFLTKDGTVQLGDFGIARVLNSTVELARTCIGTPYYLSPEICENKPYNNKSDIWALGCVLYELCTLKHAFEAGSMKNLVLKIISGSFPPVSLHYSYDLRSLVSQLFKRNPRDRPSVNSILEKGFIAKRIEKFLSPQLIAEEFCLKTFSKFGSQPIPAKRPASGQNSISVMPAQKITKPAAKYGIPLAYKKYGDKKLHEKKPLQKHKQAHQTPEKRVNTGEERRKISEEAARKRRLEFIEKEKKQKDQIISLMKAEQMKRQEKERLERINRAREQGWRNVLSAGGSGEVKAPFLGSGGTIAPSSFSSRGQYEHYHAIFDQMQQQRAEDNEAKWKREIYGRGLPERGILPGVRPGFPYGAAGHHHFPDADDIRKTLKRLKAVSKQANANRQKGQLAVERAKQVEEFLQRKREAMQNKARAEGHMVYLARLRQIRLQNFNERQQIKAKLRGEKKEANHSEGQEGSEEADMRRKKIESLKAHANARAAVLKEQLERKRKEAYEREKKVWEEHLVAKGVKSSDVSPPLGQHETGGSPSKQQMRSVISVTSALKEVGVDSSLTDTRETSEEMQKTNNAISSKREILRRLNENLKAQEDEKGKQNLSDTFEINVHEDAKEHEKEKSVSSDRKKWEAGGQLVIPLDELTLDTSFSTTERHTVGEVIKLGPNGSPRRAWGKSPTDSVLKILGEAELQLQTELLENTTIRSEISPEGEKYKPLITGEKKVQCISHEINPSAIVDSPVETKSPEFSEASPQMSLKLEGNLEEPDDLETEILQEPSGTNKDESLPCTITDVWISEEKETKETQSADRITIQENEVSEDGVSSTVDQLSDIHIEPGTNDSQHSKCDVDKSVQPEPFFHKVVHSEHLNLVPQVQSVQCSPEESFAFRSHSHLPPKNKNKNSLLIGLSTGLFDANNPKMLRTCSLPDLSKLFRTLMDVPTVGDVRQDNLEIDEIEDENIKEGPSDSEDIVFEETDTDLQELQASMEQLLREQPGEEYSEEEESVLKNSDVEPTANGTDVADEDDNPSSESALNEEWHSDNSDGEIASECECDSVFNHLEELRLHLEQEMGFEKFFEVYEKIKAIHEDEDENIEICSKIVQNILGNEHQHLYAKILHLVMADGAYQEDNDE
# [2] = target: Serine/threonine-protein kinase SIK2 (Homo sapiens) (UniProt Q9H0K1); assay: Inhibition of SIK2 (unknown origin) at 10 uM by Ambit Kinomescan binding assay
# Chain of Serine/threonine-protein kinase SIK2 (Homo sapiens) (Q9H0K1 whole entry, looked up): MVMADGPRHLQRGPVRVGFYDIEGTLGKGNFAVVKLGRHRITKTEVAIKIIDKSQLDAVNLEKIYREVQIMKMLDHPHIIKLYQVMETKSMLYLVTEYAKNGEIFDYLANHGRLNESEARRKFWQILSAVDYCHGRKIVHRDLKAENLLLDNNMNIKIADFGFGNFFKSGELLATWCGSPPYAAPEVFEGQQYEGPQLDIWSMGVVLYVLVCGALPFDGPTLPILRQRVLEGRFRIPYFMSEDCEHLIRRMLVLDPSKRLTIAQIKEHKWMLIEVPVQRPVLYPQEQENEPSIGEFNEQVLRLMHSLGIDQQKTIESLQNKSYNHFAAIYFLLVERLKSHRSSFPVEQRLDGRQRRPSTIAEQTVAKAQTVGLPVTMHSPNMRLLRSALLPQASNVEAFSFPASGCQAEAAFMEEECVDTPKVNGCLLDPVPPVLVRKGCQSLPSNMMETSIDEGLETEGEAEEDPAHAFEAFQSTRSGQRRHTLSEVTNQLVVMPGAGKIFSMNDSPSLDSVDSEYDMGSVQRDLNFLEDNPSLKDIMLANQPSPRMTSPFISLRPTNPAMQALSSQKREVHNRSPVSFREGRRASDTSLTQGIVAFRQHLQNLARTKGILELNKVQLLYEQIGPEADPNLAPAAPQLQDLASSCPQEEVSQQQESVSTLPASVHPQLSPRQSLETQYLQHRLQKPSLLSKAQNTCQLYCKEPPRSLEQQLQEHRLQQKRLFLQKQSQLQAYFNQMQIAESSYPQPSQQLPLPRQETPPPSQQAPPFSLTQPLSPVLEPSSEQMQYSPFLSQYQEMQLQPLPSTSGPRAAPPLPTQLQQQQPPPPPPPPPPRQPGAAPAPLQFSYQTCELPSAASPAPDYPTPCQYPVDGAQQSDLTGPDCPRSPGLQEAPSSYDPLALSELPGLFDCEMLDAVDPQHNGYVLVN
# [3] = target: Serine/threonine-protein kinase 38-like (Homo sapiens) (UniProt Q9Y2H1); assay: Inhibition of NDR2 Lys1 labeling site harbouring KDTGHIYAMKILR in human A-375 cells at 0.5 uM by KiNativ Profiling analysis relative to control; type: cell-based
# Chain of Serine/threonine-protein kinase 38-like (Homo sapiens) (Q9Y2H1 2-464 limits assumed): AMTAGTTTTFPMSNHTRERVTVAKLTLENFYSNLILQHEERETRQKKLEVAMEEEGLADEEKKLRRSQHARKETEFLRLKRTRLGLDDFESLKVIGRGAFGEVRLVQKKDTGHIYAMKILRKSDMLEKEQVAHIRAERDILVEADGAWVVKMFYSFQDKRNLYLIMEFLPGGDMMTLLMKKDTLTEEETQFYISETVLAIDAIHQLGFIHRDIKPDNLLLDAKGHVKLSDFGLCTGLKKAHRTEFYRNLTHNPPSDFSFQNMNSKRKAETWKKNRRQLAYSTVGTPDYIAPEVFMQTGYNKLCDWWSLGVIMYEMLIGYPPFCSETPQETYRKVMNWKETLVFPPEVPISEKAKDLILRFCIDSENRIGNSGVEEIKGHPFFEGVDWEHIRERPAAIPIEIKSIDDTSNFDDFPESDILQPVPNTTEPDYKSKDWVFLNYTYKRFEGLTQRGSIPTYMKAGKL
# [4] = target: Cyclin-dependent kinase 8 (Homo sapiens) (UniProt P49336); assay: Inhibition of CDK8 (unknown origin) at 10 uM by Ambit Kinomescan binding assay relative to control; values are per cent of control
# Chain of Cyclin-dependent kinase 8 (Homo sapiens) (P49336 whole entry): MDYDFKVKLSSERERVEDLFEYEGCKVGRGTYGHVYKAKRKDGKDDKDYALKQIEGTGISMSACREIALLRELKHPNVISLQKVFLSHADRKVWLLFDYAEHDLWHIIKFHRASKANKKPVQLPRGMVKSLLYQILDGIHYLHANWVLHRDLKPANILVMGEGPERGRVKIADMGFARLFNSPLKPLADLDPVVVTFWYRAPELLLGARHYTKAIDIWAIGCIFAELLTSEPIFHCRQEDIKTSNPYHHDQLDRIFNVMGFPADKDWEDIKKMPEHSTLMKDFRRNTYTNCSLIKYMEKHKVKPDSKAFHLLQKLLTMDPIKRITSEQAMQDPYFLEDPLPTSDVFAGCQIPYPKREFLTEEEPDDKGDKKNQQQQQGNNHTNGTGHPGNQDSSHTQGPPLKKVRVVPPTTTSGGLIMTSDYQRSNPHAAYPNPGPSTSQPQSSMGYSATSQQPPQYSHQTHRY
# [5] = target: Mitogen-activated protein kinase 8 (Homo sapiens, UniProt P45983); assay: Inhibition of JNK1 (unknown origin) at 10 uM by Ambit Kinomescan binding assay relative to control
# Chain of Mitogen-activated protein kinase 8 (P45983 whole entry): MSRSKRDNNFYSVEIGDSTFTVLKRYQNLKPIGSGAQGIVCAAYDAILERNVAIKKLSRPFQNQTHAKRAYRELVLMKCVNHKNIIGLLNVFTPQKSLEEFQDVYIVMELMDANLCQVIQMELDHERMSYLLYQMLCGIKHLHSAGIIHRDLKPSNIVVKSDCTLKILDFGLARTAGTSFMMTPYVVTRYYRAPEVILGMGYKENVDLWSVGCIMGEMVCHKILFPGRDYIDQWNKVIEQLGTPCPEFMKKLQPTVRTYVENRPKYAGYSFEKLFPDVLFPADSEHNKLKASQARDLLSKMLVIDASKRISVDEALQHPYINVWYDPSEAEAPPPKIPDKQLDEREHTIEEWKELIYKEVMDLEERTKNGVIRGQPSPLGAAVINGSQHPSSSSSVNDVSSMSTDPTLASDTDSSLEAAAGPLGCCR
# [6] = target: Death-associated protein kinase 1 (Homo sapiens) (UniProt P53355); assay: Inhibition of DAPK1 (unknown origin) at 10 uM by Ambit Kinomescan binding assay
# [7] = target: Cyclin-dependent kinase 17 (Homo sapiens) (UniProt Q00537); assay: Inhibition of PCTAIRE2 Lys2 labeling site harbouring DLKPQNLLINEKin human Huh-7 cells at 1 uM by KiNativ Profiling analysis relative to control; type: cell-based
# [8] = target: Interferon-induced, double-stranded RNA-activated protein kinase (Homo sapiens) (UniProt P19525); assay: Inhibition of PKR Lys2 labeling site in human Huh-7 cell lysate at 1 uM by KiNativ Profiling analysis relative to control; type: subcellular
# [9] = target: Cyclin-dependent kinase 2 homolog (Plasmodium falciparum (isolate K1 / Thailand)) (UniProt Q07785); assay: Inhibition of Plasmodium falciparum PK5 at 1 uM by Ambit Kinomescan binding assay relative to control; values are per cent of control
# Chain of Cyclin-dependent kinase 2 homolog (Plasmodium falciparum (isolate K1 / Thailand)) (Q07785 whole entry): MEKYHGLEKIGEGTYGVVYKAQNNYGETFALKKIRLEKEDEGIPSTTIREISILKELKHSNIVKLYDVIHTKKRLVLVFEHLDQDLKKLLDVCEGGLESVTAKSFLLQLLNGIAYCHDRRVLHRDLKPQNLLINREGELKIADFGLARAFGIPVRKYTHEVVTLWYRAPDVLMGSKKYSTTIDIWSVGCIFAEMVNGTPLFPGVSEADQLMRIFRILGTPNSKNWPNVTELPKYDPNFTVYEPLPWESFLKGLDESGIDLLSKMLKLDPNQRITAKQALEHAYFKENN
# [10] = target: T2, Dual specificity mitogen-activated protein kinase kinase 3 (Homo sapiens) (UniProt P46734); assay: Inhibition of MEK3 (unknown origin) at 1 uM by Ambit Kinomescan binding assay relative to control; values are per cent of control
# T2 sequence (whole entry): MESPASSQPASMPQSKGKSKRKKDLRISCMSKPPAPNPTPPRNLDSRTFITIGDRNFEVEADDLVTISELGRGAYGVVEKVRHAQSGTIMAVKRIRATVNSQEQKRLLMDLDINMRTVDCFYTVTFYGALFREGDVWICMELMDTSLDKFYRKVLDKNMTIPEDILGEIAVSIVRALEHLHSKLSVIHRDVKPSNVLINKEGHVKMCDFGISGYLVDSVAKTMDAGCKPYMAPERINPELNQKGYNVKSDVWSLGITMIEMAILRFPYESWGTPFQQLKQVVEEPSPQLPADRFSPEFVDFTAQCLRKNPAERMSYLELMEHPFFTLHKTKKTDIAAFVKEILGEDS
# [11] = target: Leucine-rich repeat serine/threonine-protein kinase 2 (Homo sapiens) (UniProt Q5S007); assay: Inhibition of LRRK2 (unknown origin) at 1 uM by Ambit Kinomescan binding assay relative to control; values are per cent of control
# Chain of Leucine-rich repeat serine/threonine-protein kinase 2 (Homo sapiens) (Q5S007 whole entry): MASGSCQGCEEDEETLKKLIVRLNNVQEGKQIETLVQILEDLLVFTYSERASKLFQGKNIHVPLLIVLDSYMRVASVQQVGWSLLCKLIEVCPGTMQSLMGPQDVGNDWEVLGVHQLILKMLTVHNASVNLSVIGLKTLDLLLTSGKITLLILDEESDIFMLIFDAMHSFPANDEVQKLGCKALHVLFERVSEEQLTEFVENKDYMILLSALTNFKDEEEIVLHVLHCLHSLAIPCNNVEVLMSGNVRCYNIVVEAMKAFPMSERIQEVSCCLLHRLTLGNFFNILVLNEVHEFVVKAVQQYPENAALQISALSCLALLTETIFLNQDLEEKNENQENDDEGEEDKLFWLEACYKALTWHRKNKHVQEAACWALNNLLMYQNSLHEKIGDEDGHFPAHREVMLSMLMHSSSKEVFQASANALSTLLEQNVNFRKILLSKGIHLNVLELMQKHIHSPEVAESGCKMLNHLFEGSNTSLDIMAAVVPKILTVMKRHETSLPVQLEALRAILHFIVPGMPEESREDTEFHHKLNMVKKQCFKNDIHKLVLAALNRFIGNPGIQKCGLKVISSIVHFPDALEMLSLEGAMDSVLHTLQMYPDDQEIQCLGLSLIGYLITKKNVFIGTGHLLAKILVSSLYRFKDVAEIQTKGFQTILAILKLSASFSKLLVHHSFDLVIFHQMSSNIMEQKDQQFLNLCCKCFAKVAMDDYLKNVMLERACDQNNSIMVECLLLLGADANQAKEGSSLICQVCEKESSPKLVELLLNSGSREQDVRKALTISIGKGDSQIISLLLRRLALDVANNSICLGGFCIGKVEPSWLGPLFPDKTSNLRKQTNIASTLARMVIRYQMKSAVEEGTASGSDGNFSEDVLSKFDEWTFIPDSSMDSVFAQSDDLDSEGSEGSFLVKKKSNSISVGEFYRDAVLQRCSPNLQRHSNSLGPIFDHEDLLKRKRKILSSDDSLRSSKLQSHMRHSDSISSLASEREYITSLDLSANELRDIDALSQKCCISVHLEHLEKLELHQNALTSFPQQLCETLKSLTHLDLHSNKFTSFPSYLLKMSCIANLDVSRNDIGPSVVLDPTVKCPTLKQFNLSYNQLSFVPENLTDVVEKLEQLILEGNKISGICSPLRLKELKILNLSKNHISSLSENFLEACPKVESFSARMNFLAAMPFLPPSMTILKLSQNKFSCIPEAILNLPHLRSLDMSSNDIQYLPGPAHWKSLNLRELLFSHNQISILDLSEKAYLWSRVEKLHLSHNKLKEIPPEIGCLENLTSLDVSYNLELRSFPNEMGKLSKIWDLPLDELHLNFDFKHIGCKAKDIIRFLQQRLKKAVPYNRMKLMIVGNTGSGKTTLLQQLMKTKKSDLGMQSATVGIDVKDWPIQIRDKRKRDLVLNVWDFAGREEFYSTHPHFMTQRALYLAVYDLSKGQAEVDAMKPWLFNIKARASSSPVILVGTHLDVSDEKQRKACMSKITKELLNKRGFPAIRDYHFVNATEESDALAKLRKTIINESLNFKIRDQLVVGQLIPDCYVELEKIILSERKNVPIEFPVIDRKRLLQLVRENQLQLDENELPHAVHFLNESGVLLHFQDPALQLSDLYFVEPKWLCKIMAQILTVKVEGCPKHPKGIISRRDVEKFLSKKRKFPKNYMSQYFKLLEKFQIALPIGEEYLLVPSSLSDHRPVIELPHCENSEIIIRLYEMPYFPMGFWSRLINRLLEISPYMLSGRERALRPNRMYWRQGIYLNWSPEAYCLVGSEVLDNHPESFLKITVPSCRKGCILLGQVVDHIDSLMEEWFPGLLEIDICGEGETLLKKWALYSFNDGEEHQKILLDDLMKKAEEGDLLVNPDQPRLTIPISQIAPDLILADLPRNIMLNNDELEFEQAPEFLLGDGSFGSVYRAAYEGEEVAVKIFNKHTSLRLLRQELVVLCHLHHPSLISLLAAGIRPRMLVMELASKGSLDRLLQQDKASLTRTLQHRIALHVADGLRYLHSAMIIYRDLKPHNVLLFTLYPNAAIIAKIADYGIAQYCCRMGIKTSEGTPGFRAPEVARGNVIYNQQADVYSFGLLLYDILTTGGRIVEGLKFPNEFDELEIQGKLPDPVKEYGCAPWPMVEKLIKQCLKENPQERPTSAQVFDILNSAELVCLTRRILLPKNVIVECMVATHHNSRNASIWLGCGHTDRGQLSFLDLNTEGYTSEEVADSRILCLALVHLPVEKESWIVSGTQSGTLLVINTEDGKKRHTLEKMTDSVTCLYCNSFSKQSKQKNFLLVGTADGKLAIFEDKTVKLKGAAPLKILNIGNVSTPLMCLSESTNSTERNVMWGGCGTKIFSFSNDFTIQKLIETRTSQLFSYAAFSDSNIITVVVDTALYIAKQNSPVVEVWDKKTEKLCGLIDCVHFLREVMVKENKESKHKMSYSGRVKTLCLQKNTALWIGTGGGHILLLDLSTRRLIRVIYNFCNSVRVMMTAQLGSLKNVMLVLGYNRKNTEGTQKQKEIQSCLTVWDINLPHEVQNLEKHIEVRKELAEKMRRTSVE
# [12] = target: T3, Dual specificity mitogen-activated protein kinase kinase 6 (Homo sapiens) (UniProt P52564); assay: Inhibition of MEK6 (unknown origin) at 1 uM by Ambit Kinomescan binding assay relative to control; values are per cent of control
# T3 sequence (whole entry): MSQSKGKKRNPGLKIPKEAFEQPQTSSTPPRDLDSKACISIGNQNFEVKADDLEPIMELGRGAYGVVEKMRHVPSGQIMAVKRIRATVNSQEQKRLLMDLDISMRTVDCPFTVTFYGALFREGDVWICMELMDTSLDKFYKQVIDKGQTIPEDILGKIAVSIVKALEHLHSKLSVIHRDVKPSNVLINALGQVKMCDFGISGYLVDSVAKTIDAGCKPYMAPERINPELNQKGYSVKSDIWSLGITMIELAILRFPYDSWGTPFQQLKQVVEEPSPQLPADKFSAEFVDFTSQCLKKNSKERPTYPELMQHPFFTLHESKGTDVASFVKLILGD
smiles,measurement,setting,value
CCN1CCN(Cc2ccc(NC(=O)c3ccc(C)c(Oc4ccnc5[nH]ccc45)c3)cc2C(F)(F)F)CC1,inhibition,[1],-5.8%
same,inhibition,[2],inactive
same,inhibition,[3],31.6%
same,percent of control,[4],3.9%
same,inhibition,[5],0%
same,inhibition,[6],inactive
CNc1cc(Oc2cc(C(=O)Nc3cc(N4CCN(C)CC4)cc(C(F)(F)F)c3)ccc2C)ncn1,inhibition,[7],-2.1%
same,inhibition,[8],-3.6%
CCN1CCN(Cc2ccc(NC(=O)c3ccc(C)c(/C=C/c4cnc5[nH]ccc5c4OC)c3)cc2C(F)(F)F)CC1,residual activity,[9],100%
same,residual activity,[10],62%
same,residual activity,[11],53%
same,residual activity,[12],100%
